Measurements taken from patent US20060223812A1, “Treating neurodegenerative conditions” (MAX-PLANCK-GESELLSCHAFT ZUR FORDERUNGDER WISSENSCHAFTEN, …, priority 2004, published 2006).
Several values for one entry are separate records, joined by “and”; a condition that tells them apart may be missing. Identical values can stand only once. Like-named read-outs stand apart in the source and are kept apart here.

Assays:
K18/ΔK280 = K18/ΔK280 (Homo sapiens, UniProt P10636, DEL598-598); assay: Thioflavine S assay, inhibition of PHF formation, K18/ΔK280 without heparin; format: biochemical
Text: All the polymerisation reactions described so far used heparin as a cofactor for inducing PHF assembly because otherwise the process would be impracticably slow (Goedert et al., 1996; Perez et al., 1996). In order to rule out a potential influence of heparin on the efficiency of the compounds the 4-repeat construct K18/ΔK280 which carries one of the mutations observed in frontotemporal dementia (van Swieten et al., 1999) and is capable of polymerising into PHFs without a polyanionic cofactor (von Bergen, 2001) (FIG. 2E) was used. […] The differences in inhibition effects for K18 (with heparin) and K18/ΔK280 (without heparin) could be caused either by a difference in conformation and/or protein-protein interactions, or perhaps by an interaction between the compound and the cofactor heparin.

htau24 = molecular target: T1, htau24 (Homo sapiens, UniProt P10636); assay: Thioflavine S assay, inhibition of PHF formation, htau24; format: biochemical; conditions: for IC50: ThS fluorescence, read-out: Inhibition of tau aggregation IC50, hTau24; for effect on PHF formation, htau24: compared to htau23; for inhibition at 60 µM: read-out: inhibition of PHF formation, htau24
T1 construct: made in house; host or cells: E. coli
Method: Assembly of synthetic PHFs of tau protein (K19, 10 μM) was performed at 37° C. in the presence of polyanions (heparin; 5 μM) in 50 mM NH4Ac, pH 6.8. Assembly was followed either qualitatively by electron microscopy or quantitatively by fluorescence assay using thioflavine S. PHF-formation of tau isoforms htau23 and htau24 was carried out in PBS-buffer pH 7.4, 50 μM protein, and 12.5 μM heparin. The samples were incubated at 50° C. for 10 days. In the case of htau24 and K18, DTT was added at a final concentration of 1 mM each day in order to avoid intra-molecular disulfide crosslinking (Barghorn et al., 2000).

PHFs from K18/ΔK280 = assay: Thioflavine S assay, depolymerisation of pre-formed PHFs, K18/ΔK280 without heparin; format: biochemical, human; conditions: ThS fluorescence, PHFs made without heparin
Method: The ThS assay was used to analyse the ability of the five compounds (see Example 4) to depolymerise pre-formed PHFs made from the repeat domain constructs K19 and K18 as well as from isoforms htau23 and htau24, containing 3 or 4 repeats, respectively.
The higher DC50 values for K18/ΔK280 point to the higher stability of PHFs formed by this mutant.
Tau constructs and isoforms K19, K18, hTau23, hTau24 (10 μM) were first aggregated into PHFs for 48 hours in the presence of 2.5 μM heparin (except K18/ΔK280) and the polymers separated from the soluble tau by centrifugation of 1 h at 100,000 g, redissolved and then exposed to the inhibitors overnight at 37° C. at the indicated concentrations (range 0.001-200 μM). The compounds are capable of disassembling PHFs with varying efficiencies (see Table 2).

Aβ1-40 peptide = molecular target: T2, Aβ1-40 peptide (Homo sapiens, UniProt P05067); assay: Aβ fibre aggregation inhibition (thioflavine T); format: biochemical; conditions: 60 μM compound
T2 construct: Commercial human Aβ1-40 was obtained from Calbiochem; purchased Calbiochem
Method: Besides the activity of the compounds towards tau fibres, their specificity is an important issue, i.e. the ability to discriminate between different types of aggregates. Therefore, an analysis of the influence of the compounds (60 μM) on amyloid fibrils made from the Aβ1-40 peptide, both in terms of inhibition of de novo filament formation and depolymerisation was performed (FIGS. 8A-B). These fibres are also abundant in Alzheimer brain and contain a core of cross-β-structure, but are located outside the cells, in contrast to the intracellular PHFs.
Commercial human Aβ1-40 was obtained from Calbiochem (Schwalbach, Germany) and stored at −20° C. The AD peptide was routinely dissolved in 100% DMSO to obtain a 2 mM stock solution, which was subsequently stored frozen at −20° C. 5 μl from the 2 mM Aβ stock solution was added to 90 μl of 25 mM phosphate buffer containing 120 mM NaCl, and 0.02% sodium azide, final pH 7.4 and 5 μl of 100% DMSO so that the final DMSO concentration was 10% v/v, and the protein concentration was adjusted to 100 μM. Incubations were at room temperature. In order to accelerate aggregation tubes were put on a lab shaker and agitated at moderate speed. For analysis 5 μl of this solution were added to 45 μl 10 mM phosphate buffer containing 6 μM thioflavine T, pH 6.0, after 30 minutes incubation at room temperature the fluorescence was measured at 504 nm emission by an excitation of 409 nm. To correlate fibril morphology with the fluorescence signal, aliquots of the Aβ1-40 solutions were simultaneously prepared for electron microscopy. The inhibition of fibril formation and disassembly of pre-formed Aβ-fibrils were carried out in triplicates with 60 μM compound and 10 μM protein.
Aβ peptide 1-40 (10 μM) was incubated with moderate shaking overnight at room temperature and incubated with various compounds (60 μM) overnight.

[1] = ThS fluorescence, read-out: Inhibition of tau aggregation IC50, K18/ΔK280

T1 sequence (P10636 1-383 isoform P10636-6): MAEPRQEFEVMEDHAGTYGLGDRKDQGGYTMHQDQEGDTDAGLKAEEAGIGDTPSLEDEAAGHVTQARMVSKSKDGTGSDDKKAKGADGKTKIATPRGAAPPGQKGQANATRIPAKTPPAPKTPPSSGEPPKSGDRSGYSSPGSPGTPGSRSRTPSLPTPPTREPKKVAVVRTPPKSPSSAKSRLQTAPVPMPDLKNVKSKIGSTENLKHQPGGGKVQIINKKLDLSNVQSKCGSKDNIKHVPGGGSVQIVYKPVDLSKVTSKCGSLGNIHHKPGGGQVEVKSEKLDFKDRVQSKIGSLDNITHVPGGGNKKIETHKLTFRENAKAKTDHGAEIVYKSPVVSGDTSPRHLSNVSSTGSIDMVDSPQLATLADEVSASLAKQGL
T2 sequence (P05067 672-711): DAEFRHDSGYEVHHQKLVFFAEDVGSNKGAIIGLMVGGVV
K18/ΔK280, sequence (P10636 with tags, fused parts or gaps DEL598-598): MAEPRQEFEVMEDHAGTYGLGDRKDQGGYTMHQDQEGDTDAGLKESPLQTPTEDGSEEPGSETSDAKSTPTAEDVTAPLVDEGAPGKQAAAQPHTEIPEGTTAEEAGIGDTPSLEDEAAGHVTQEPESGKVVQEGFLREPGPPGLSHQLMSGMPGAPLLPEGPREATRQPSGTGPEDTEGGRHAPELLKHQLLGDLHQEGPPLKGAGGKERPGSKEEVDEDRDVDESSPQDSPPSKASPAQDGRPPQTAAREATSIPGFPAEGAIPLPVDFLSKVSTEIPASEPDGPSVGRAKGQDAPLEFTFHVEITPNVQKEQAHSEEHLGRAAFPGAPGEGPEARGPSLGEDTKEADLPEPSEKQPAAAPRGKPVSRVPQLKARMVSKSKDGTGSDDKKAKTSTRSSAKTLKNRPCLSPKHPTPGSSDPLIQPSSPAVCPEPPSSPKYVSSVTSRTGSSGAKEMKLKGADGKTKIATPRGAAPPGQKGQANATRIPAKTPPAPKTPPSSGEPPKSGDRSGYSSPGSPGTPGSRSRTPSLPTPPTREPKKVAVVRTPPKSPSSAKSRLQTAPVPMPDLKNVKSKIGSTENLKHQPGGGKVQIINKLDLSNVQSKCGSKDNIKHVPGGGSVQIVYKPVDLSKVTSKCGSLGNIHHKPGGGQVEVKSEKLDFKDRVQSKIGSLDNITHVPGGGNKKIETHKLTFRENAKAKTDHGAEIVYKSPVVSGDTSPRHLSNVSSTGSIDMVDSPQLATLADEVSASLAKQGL

Row | SMILES | inhibition of filament formation, K18/ΔK280 (K18/ΔK280) | IC50 (K18/ΔK280; [1]) | IC50 (htau24) | effect on PHF formation, htau24 (htau24) | DC50 (PHFs from K18/ΔK280) | Depolymerisation of PHFs DC50, K18/ΔK280 (PHFs from K18/ΔK280) | inhibition at 60 µM (Aβ1-40 peptide; 10 μM Aβ1-40, read-out: inhibition of Aβ filament formation) | inhibition at 60 µM (htau24; 60 μM compound) | inhibition of Aβ fibre aggregation (Aβ1-40 peptide) | IC50 (K18/ΔK280; Inhibition of tau aggregation IC50, K18/ΔK280, ThS fluorescence) | inhibition at 60 µM (htau24)
1 | O=C(c1ccccc1)c1ccc(O)c(O)c1O [PHF005, 1-Phenyl-1-(2,3,4-trihydroxy-phenyl)-methanone] | failed nearly completely | > 60 µM | > 100 µM | only a small effect | > 100 µM | not accurately detectable | ~50% |  |  |  | 
2 | Cc1cc(O)c2c(c1)C(=O)c1cc(O)cc(O)c1C2=O [Emodin, 1,3,8-Trihydroxy-6-methyl-anthraquinone] |  | 1.9 µM | 1.8 µM |  | 2.7 µM |  |  | 70 to 90% | most efficient |  | 
3 | COc1cccc2c1C(=O)c1c(O)c3c(c(O)c1C2=O)CC(O)(C(=O)CO)CC3OC1CC(N)C(O)C(C)O1 (centres unmarked) [Adriamycin, 10-(4-Amino-5-hydroxy-6-methyl-tetrahydro-pyran-2-yloxy)-6,8,11-trihydroxy-8-(2-hydroxyethanoyl)-1-methoxy-7,8,9,10-tetrahydro-naphthacene-5,12-dione, reference compound] |  |  | 2.7 µM |  | 22 µM |  |  |  |  | 3.9 µM | 
4 | O=C1c2ccc(O)c(O)c2C(=O)c2c(O)ccc(O)c21 [PHF016, 1,2,5,8-Tetrahydroxy-anthraquinone] |  | 1.3 µM | > 60 µM | only a small effect | > 60 µM | not accurately detectable |  |  | most efficient |  | 
5 | COc1cccc2c1C(=O)c1c(O)c3c(c(O)c1C2=O)CC(O)(C(C)=O)CC3OC1CC(N)C(O)C(C)O1 (centres unmarked) [Daunorubicin, 8-Acetyl-10-(4-amino-5-hydroxy-6-methyl-tetrahydro-pyran-2-yloxy)-6,8,11-trihydroxy-1-methoxy-7,8,9,10-tetrahydro-naphthacene-5,12-dione, reference compound] |  | 48 µM and 48.1 µM | 3.4 µM |  | 7.7 µM |  |  |  | most efficient |  | 70 to 90%
